From PubChem BioAssay (NCI)
“And” between values parts separate entries of the source, which are not always exact repeats. Equal values may be shown once.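 A five-concentration, 48-hour dose response in 96-well plates underlies each endpoint, interpolated linearly between surrounding concentrations. The concentration for 50% growth inhibition is given as GI50. TGI marks complete inhibition of growth.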

Columns and labels:
Assay in all cases: growth of human tumour cells (NCI), 48 h
OVCAR-5 ovarian = system: OVCAR-5 ovarian
SNB-75 CNS = system: SNB-75 CNS
SR leukemia = system: SR leukemia
UO-31 renal = system: UO-31 renal
SK-MEL-28 melanoma = system: SK-MEL-28 melanoma
IGROV1 ovarian = system: IGROV1 ovarian
COLO 205 colon = system: COLO 205 colon
SF-539 CNS = system: SF-539 CNS
M14 melanoma = system: M14 melanoma
HS 578T breast = system: HS 578T breast

Structure (SMILES) | TGI (OVCAR-5 ovarian) [µM] | TGI (SNB-75 CNS) [µM] | TGI (SR leukemia) [µM] | TGI (UO-31 renal) [µM] | TGI (SK-MEL-28 melanoma) | TGI (IGROV1 ovarian) | TGI (COLO 205 colon) [µM] | TGI (SF-539 CNS) [µM] | TGI (M14 melanoma) [µM] | GI50 (OVCAR-5 ovarian) [µM] | GI50 (UO-31 renal) [µM] | GI50 (SK-MEL-28 melanoma) | GI50 (IGROV1 ovarian) [µM] | GI50 (HS 578T breast) [µM] | TGI (HS 578T breast) [µM] | GI50 (COLO 205 colon) [µM] | GI50 (SF-539 CNS) [µM] | GI50 (M14 melanoma) [µM] | GI50 (SNB-75 CNS) [µM] | GI50 (SR leukemia) [µM]
O=[N+]([O-])c1cc(I)cc(/C=N/NS(=O)(=O)c2ccc(Cl)cc2)c1O | 71.6 | 61.2 | 46.2 | 36.8 | 73.8 µM | 45.1 µM | 33.1 | 51.5 | 58.3 |  |  |  |  |  |  |  |  |  |  | 
O=C(O)CCSC(=O)Nc1cccc2ccccc12 | > 100 | > 100 | > 100 | > 100 | > 100 µM | > 100 µM | > 100 | > 100 | > 100 |  |  |  |  |  |  |  |  |  |  | 
O=C(c1ccccc1)C1OC1C(=O)c1ccccc1 (stereo not given) | 25.2 |  |  | 85.6 | 44.5 µM | 15 µM | 15.4 | 12.6 | 11.9 | 3.86 | 8.09 | 4.28 µM | 3.56 | 3.01 | > 100 | 4.94 | 3.77 | 2.78 |  | 
CCc1cccc(C(C)CC)c1NC(=O)C(=O)Cc1nc2ccccc2o1 (stereo not given) | > 50 | > 50 |  | > 50 | > 50 µM | > 50 µM | > 50 | > 50 | > 50 |  |  |  |  |  |  |  |  |  |  | 
COc1ccc2c(c1)C(=O)c1c-2c(N2CCN(C(=O)CCNCCNCCN)CC2)nc2ccccc12 |  | 51.6 |  | 30.4 | 3.66 µM | 32.7 µM | 6.34 |  | 3.83 |  | 10.5 | 2.04 µM | 5.89 | 14.2 | 46.5 | 2.54 |  | 2.03 | 27.8 | 
CCN(CC)CCCNc1n[n+]([O-])c2ccccc2[n+]1[O-] | 69.7 | 77.1 | 76.2 | > 100 | > 100 µM | 24.2 µM | 40.1 | 68.9 | > 100 |  |  |  |  |  |  |  |  |  |  | 
CC(C)CCCCCCCCCCCCC(=O)NCC(=O)NC1C(C)OC(Nc2ncnc3nc[nH]c23)C(O)C1O (stereo not given) |  | 0.00316 |  |  | 0.485 µM and 1.26 µM | 0.082 µM and < 0.0444 µM |  |  |  | 0.00814 | 0.00201 | 0.00869 µM and 0.0484 µM | 0.00319 |  |  |  | 0.011 | 0.00252 | 0.0522 | 0.00451
CN(C)CCN(C)C(=O)c1cccc2cccc(C(=O)O)c12 | > 100 | > 100 | > 100 | > 100 | > 100 µM | > 100 µM | > 100 | > 100 | > 100 |  |  |  |  |  |  |  |  |  |  | 
O=C(C=Nc1ccccc1S)c1ccco1 |  | 31.9 |  | 6.77 | 30.1 µM | 22.2 µM | 32.1 | 27.3 | 28.7 |  |  |  |  |  |  |  |  | 15 | 17.7 | 
O=C1c2cc3c(cc2-c2c1c1ccc(F)cc1c(=O)n2C[C@H](O)[C@H](O)[C@H](O)CO)OCO3 | 0.866 |  |  |  | 1.51 µM | > 100 µM | 0.959 |  | 4 | 0.253 |  | 0.282 µM | 0.322 | 0.506 | 9.62 | 0.193 |  | 0.18 |  | 
CCN(CCO)CCCC(C)Nc1ccnc2cc(Cl)ccc12 (stereo not given) |  | > 100 |  | > 100 | > 100 µM | > 100 µM | > 100 | > 100 | > 100 |  | > 100 | > 100 µM | > 100 | > 100 | > 100 | > 100 | 8.63 | > 100 | > 100 | 
COc1ccc([Se][Se]c2ccc(OC)cc2OC)c(OC)c1 |  | 3.11 |  | 5.31 | 4.56 µM | 15.3 µM | > 100 | 3.16 | 9.3 |  |  |  |  |  |  |  |  |  |  | 
Cc1[nH]c2ccccc2c1C1=NO/C(=N\O)C(c2c(C)[nH]c3ccccc23)C1 (stereo not given) | > 100 | > 100 | > 78.7 | > 80.5 | > 100 µM | > 100 µM | 41 | > 80.3 | > 89.6 |  |  |  |  |  |  |  |  |  |  | 
N#CC1(N2CCCC2)CCC2(CC1)OCCO2 | > 100 | > 100 | > 100 | > 100 | > 100 µM | > 100 µM | > 10 | > 100 | > 100 |  |  |  |  |  |  |  |  |  |  | 
COc1ccc(-c2cc(=O)c3cc(C)c(C)c(C(=O)O)c3o2)cc1 |  | > 100 | > 100 | > 100 | > 100 µM | > 100 µM | > 100 | > 100 |  |  |  |  |  |  |  |  |  |  |  | 
O=c1cc(-c2ccccc2)oc2c1ccc1ccccc12 | > 100 | 45.9 |  | > 100 | > 100 µM | 55.8 µM | > 100 | 76.1 | > 100 | 50.7 | 8.55 | 29.3 µM | 14.1 | 23.4 | 83.2 | 24.2 | 18.6 | 61.1 | 11.6 | 
C[C@]12CCc3nonc3C1CC[C@@H]1C2CC[C@@]2(C)C1CC[C@@H]2O (stereo not given in full) | > 100 | > 100 |  | > 100 | > 100 µM | > 100 µM | > 100 | > 100 | > 100 |  |  |  |  |  |  |  |  |  |  | 
CCOC(=O)CNC(=O)OCc1ccccc1 | > 100 | > 100 |  | > 100 | > 100 µM | > 100 µM | > 100 | > 100 | > 100 |  |  |  |  |  |  |  |  |  |  | 
CC1(C)N=c2cc3c(cc2N1c1ccc(Cl)cc1)=Nc1ccccc1N3c1ccc(Cl)cc1 | > 100 | 71.6 |  | > 100 | > 100 µM | > 100 µM | 21.8 | > 100 | > 100 | 8.13 | 2.96 | 45.3 µM | 13.4 | 12.2 | > 100 | 4.66 | 8.97 | 9.32 | 2.45 | 
CC[C@]12C=CCN3CC[C@@]4(c5ccc(OC)cc5N(C)[C@H]4[C@@](O)(C(=O)OC)[C@@H]1OC(=O)CCC(=O)O[C@H]1CC[C@H]4[C@@H]5CC[C@H]6CC(=O)CC[C@]6(C)[C@H]5CC[C@]14C)[C@@H]32 | > 100 | > 100 |  |  | > 100 µM | > 100 µM |  | > 100 | 22.2 | 2.69 |  | 3.27 µM | 3.17 | 3.65 | > 100 |  | 3.89 | 2 | 3.3 | 
